Test results from patent publication EP4768499A1, “MACROCYCLIC PEPTIDE COMPOUND HAVING CELL MEMBRANE PERMEABILITY AND METABOLIC STABILITY, AND LIBRARY CONTAINING SAME” (Chugai Seiyaku Kabushiki Kaisha, priority 2023, dated 2025).
Starred links: 1 amine or outer side, 2 acyl side, 3 side chain; linkers in the order of their positions; H or OH if unused. Positions of bridges follow the written chain, without caps; N, C: chain ends. Non-standard residues stand in square brackets, D forms with d. Residues, ends and D or L forms follow the SMILES beside them. *: point of attachment. NMedβ3hAla = C[C@H](CC(=O)[*:2])N(C)[*:1]; NMeF = CN[C@@H](Cc1ccccc1)C(=O)O; NMeGABA = CN(CCCC(=O)[*:2])[*:1]; NMeI = CC[C@H](C)[C@H](NC)C(=O)O; NMeT = CN[C@H](C(=O)O)[C@@H](C)O; hPhe = N[C@@H](CCc1ccccc1)C(=O)O; NMeD = CN[C@@H](CC(=O)O)C(=O)O; NMeL = CN[C@@H](CC(C)C)C(=O)O; dNMeV = CN[C@@H](C(=O)O)C(C)C; NMeV = CN[C@H](C(=O)O)C(C)C; d(β3hA) = C[C@@H](N)CC(=O)O; NMeAbu = CC[C@H](NC)C(=O)O; NMeA = CN[C@@H](C)C(=O)O; Piperidide = C1CCN(*)CC1; dNMeA = CN[C@H](C)C(=O)O; Abu = CC[C@H](N)C(=O)O; NBuGly = CCCCNCC(=O)O; Sar = CNCC(=O)O; tBu = CC(C)(C)*

Key:
[1] = Metabolic stability test: liver microsomal stability assay; format: in vitro ADME, mouse; conditions: mouse liver microsomes 0.5 mg protein/mL, compound 1 µM; for microsomal CLint at 1 µM: male, pH 7.4, presence of NADPH, read-out: Mouse Hepatic Microsome CLh,int NADPH(+); for Mouse Hepatic Microsome CLh,int NADPH(-): absence of NADPH
[2] = Membrane permeability test using Caco-2 cells with preincubation; format: in vitro ADME; conditions: Caco-2; preincubation 20 to 24 hours; Apical FaSSIF/HBSS pH 6.0, Basal HBSS 4% BSA pH 7.4; 180 minutes; read-out: Caco2 Papp
[3] = test system: Caco-2 cells; assay: as above; format: in vitro ADME; conditions: Caco-2 cells, preincubation 20 to 24 hours; apical FaSSIF/HBSS 1% DMSO pH 6.0, basal HBSS 4% BSA pH 7.4; basal sample at 180 minutes

Structure (SMILES) | microsomal CLint at 1 µM [1] [µL/min/mg] | Mouse Hepatic Microsome CLh,int NADPH(-) [1] [µL/min/mg Protein] | Papp A→B [2] [×10⁻⁶ cm/s] | Caco2 Papp (10^-6 cm/sec) [3]
CC[C@@H]1NC(=O)[C@H](Cc2ccccc2)N(C)C(=O)[C@H](COC(C)(C)C)NC(=O)[C@H](CC(C)C)N(C)C(=O)[C@H](C)N(C)C(=O)[C@H]([C@@H](C)O)NC(=O)[C@H](CC(C)C)N(C)C(=O)[C@H](C(C)C)N(C)C(=O)[C@H](CCc2ccccc2)NC(=O)[C@H](CC(C)C)N(C)C(=O)[C@@H](C(C)C)N(C)C(=O)C[C@@H](C(=O)N2CCCCC2)N(C)C(=O)[C@H](CC(C)C)NC(=O)[C@H](C(C)C)N(C)C1=O [pd089] ([dNMeV][NMeL][hPhe][NMeV][NMeL]T[NMeA][NMeL]S(tBu)[NMeF][Abu][NMeV]L[NMeD]-Piperidide; lactam N-14) | 29 | 29.8 | < 0.11 | <0.11 10^-6 cm/sec
CC[C@@H]1NC(=O)[C@H]([C@@H](C)O)NC(=O)[C@H](Cc2ccccc2)N(C)C(=O)[C@H](CC(C)C)N(C)C(=O)[C@H](C(C)C)NC(=O)[C@H]([C@@H](C)CC)N(C)C(=O)[C@H]([C@@H](C)CC)NC(=O)[C@H](CC(C)C)N(C)C(=O)[C@H](C)N(C)C(=O)[C@H](C)NC(=O)C[C@@H](C)N(C)C(=O)[C@H](CC(C)C)N(C)C(=O)[C@H](C)N(C)C(=O)CN(C)C1=O [pd069] (cyclo(A[NMeA][NMeL]I[NMeI]V[NMeL][NMeF]T[Abu][Sar][NMeA][NMeL][NMedβ3hAla])) | 16.5 | 20.5 | < 0.08 | <0.08 10^-6 cm/sec
CC(C)C[C@@H]1NC(=O)[C@H](CC(C)C)N(C)C(=O)[C@H](C(C)C)N(C)C(=O)[C@H](CCc2ccccc2)NC(=O)[C@H]([C@@H](C)O)N(C)C(=O)[C@@H](C(C)C)NC(=O)C[C@@H](C(=O)N2CCCCC2)NC(=O)[C@H](C(C)C)N(C)C(=O)[C@H](CC(C)C)NC(=O)[C@H](Cc2ccccc2)N(C)C(=O)[C@@H]2CCCN2C(=O)[C@H](CC(C)C)N(C)C(=O)CN(C)C1=O [pd107] ([dV][NMeT][hPhe][NMeV][NMeL]L[Sar][NMeL]P[NMeF]L[NMeV]D-Piperidide; lactam N-13) | 36.3 | 31.5 | 0.81 | 0.81 10^-6 cm/sec
CC[C@H]1C(=O)N(C)[C@@H](Cc2ccccc2)C(=O)N(C)[C@@H](CC(C)C)C(=O)N[C@@H](CC(C)C)C(=O)N(C)[C@@H](C(C)C)C(=O)N[C@H](C)CC(=O)N(C)CC(=O)N(C)[C@@H](C(C)C)C(=O)N(C)[C@@H](CC(C)C)C(=O)N(C)[C@@H](C)C(=O)N(C)[C@@H](CC(C)C)C(=O)N[C@@H]([C@@H](C)O)C(=O)N(C)CC(=O)N1C [pd140] (cyclo(L[NMeV][d(β3hA)][Sar][NMeV][NMeL][NMeA][NMeL]T[Sar][NMeAbu][NMeF][NMeL])) | 10.5 | 10.3 | 0.31 | 0.31 10^-6 cm/sec
CC[C@H](C)[C@H]1C(=O)N[C@@H](Cc2ccccc2)C(=O)N2CCC[C@H]2C(=O)N(C)[C@@H](CC(C)C)C(=O)N[C@@H](COC(C)(C)C)C(=O)N(C)[C@@H](Cc2ccccc2)C(=O)N[C@@H]([C@@H](C)O)C(=O)N(C)[C@@H](CC)C(=O)N2CCC[C@H]2C(=O)N(C)[C@@H](CC(C)C)C(=O)N[C@H](C(=O)N2CCCCC2)CC(=O)N(C)CCCC(=O)N(C)[C@@H](CC(C)C)C(=O)N1C [pd118] ([NMeGABA][NMeL][NMeI]FP[NMeL]S(tBu)[NMeF]T[NMeAbu]P[NMeL]D-Piperidide; lactam N-13) | 31.2 | 19.8 | 0.46 | 0.46 10^-6 cm/sec
CC[C@H](C)[C@@H]1NC(=O)[C@H]([C@@H](C)CC)N(C)C(=O)[C@@H](C)NC(=O)C[C@@H](C(=O)N2CCCCC2)N(C)C(=O)[C@H](C(C)C)NC(=O)[C@H](Cc2ccccc2)N(C)C(=O)[C@H](COC(C)(C)C)NC(=O)[C@H](CC(C)C)N(C)C(=O)[C@H](C)NC(=O)CN(C)C(=O)[C@H](CC(C)C)N(C)C(=O)[C@H](C)N(C)C(=O)[C@H](Cc2ccccc2)N(C)C1=O [pd151] ([dA][NMeI]I[NMeF][NMeA][NMeL][Sar]A[NMeL]S(tBu)[NMeF]V[NMeD]-Piperidide; lactam N-13) | 29.6 | 22.4 | 0.39 | 0.39 10^-6 cm/sec
CCCCN1CC(=O)N(C)[C@@H](CC)C(=O)N[C@@H](CC(C)C)C(=O)N[C@H](C(=O)N2CCCCC2)CC(=O)N(C)[C@@H](C)C(=O)N[C@@H]([C@@H](C)CC)C(=O)N(C)[C@@H](Cc2ccccc2)C(=O)N(C)[C@@H](CC(C)C)C(=O)N[C@@H](C(C)C)C(=O)N(C)CC(=O)N[C@@H](CC(C)C)C(=O)N(C)[C@@H](Cc2ccccc2)C(=O)N(C)[C@@H](C)C(=O)N[C@@H](CC(C)C)C1=O [pd018] ([NMeA]I[NMeF][NMeL]V[Sar]L[NMeF][NMeA]L[NBuGly][NMeAbu]LD-Piperidide; lactam N-14) | 42.3 | 34.1 | 0.11 | 0.11 10^-6 cm/sec
CC[C@@H]1NC(=O)[C@H](Cc2ccccc2)N(C)C(=O)[C@H](CC(C)C)NC(=O)CNC(=O)[C@H]([C@@H](C)O)N(C)C(=O)[C@H](CC(C)C)N(C)C(=O)[C@H]([C@@H](C)CC)NC(=O)[C@H](Cc2ccccc2)N(C)C(=O)CN(C)C(=O)C[C@@H](C(=O)N2CCCCC2)NC(=O)[C@H](C(C)C)N(C)C(=O)[C@H](CC(C)C)NC(=O)[C@H](C(C)C)NC(=O)[C@H](C)N(C)C1=O [pd030] ([Sar][NMeF]I[NMeL][NMeT]GL[NMeF][Abu][NMeA]VL[NMeV]D-Piperidide; lactam N-14) | 33.7 | 28.5 | 0.04 | 0.04 10^-6 cm/sec

The remaining lines, values ahead:

microsomal CLint at 1 µM [1] [µL/min/mg] | Mouse Hepatic Microsome CLh,int NADPH(-) [1] [µL/min/mg Protein] | Papp A→B [2] [×10⁻⁶ cm/s] | Caco2 Papp (10^-6 cm/sec) [3] | Structure (SMILES)
24.3 | 2.9 | < 0.12 | <0.12 10^-6 cm/sec | CC[C@H]1C(=O)N(C)[C@@H](CC(C)C)C(=O)N2CCC[C@H]2C(=O)N(C)[C@@H](CC)C(=O)N[C@@H](CCc2ccccc2)C(=O)N(C)[C@@H](C)C(=O)N(C)[C@@H](CC)C(=O)N[C@@H](C(C)C)C(=O)N(C)[C@H](C)CC(=O)N(C)CC(=O)N(C)[C@@H](Cc2ccccc2)C(=O)N[C@@H]([C@@H](C)O)C(=O)N(C)[C@@H](CC(C)C)C(=O)N[C@@H](C(C)C)C(=O)N1C [pd073] (cyclo([NMeA][NMeAbu]V[NMedβ3hAla][Sar][NMeF]T[NMeL]V[NMeAbu][NMeL]P[NMeAbu][hPhe]))
17 | 10.8 | < 0.12 | <0.12 10^-6 cm/sec | CC[C@@H]1NC(=O)[C@@H]2CCCN2C(=O)[C@H](CC(C)C)N(C)C(=O)[C@H](C(C)C)NC(=O)[C@H](CC(C)C)N(C)C(=O)[C@H]([C@@H](C)O)NC(=O)[C@H](Cc2ccccc2)N(C)C(=O)CN(C)C(=O)C[C@@H](C)N(C)C(=O)[C@H](C(C)C)NC(=O)[C@H](COC(C)(C)C)NC(=O)[C@H](C)N(C)C(=O)[C@H](CC(C)C)NC(=O)[C@H](Cc2ccccc2)N(C)C1=O [pd067] (cyclo([Abu][NMeF]L[NMeA]S(tBu)V[NMedβ3hAla][Sar][NMeF]T[NMeL]V[NMeL]P))
51.4 | 30.0 | < 0.11 | <0.11 10^-6 cm/sec | CC[C@@H]1NC(=O)[C@H](CC(C)C)N(C)C(=O)[C@H](CC(C)C)NC(=O)CN(C)C(=O)[C@H](C(C)C)NC(=O)[C@H](CC(C)C)N(C)C(=O)[C@H](C(C)C)NC(=O)[C@H](Cc2ccccc2)N(C)C(=O)[C@H](C)N(C)C(=O)[C@@H](C)NC(=O)C[C@@H](C)NC(=O)[C@H](C(C)C)N(C)C(=O)[C@H](CC)N(C)C(=O)[C@H](CCc2ccccc2)NC1=O [pd006] (cyclo([Abu][hPhe][NMeAbu][NMeV][d(β3hA)][dA][NMeA][NMeF]V[NMeL]V[Sar]L[NMeL]))
16.3 | 14.8 | 0.72 | 0.72 10^-6 cm/sec | CC[C@H]1C(=O)N[C@@H](COC(C)(C)C)C(=O)N(C)[C@@H](Cc2ccccc2)C(=O)N(C)[C@@H](C(C)C)C(=O)N[C@H](C)CC(=O)N(C)[C@H](C)C(=O)N(C)[C@@H](CC(C)C)C(=O)N(C)[C@@H](C(C)C)C(=O)N2CCC[C@H]2C(=O)N[C@@H](C(C)C)C(=O)N(C)[C@@H](Cc2ccccc2)C(=O)N[C@@H]([C@@H](C)O)C(=O)N(C)[C@@H](CC(C)C)C(=O)N(C)[C@@H](C)C(=O)N1C [pd058] (cyclo([NMeA][NMeAbu]S(tBu)[NMeF][NMeV][d(β3hA)][dNMeA][NMeL][NMeV]PV[NMeF]T[NMeL]))
32.5 | 25.1 | 0.49 | 0.49 10^-6 cm/sec | CC[C@H](C)[C@@H]1NC(=O)[C@@H]2CCCN2C(=O)[C@H](C(C)C)N(C)C(=O)[C@H](CC(C)C)NC(=O)[C@@H](C)N(C)C(=O)C[C@@H](C)NC(=O)[C@H](C(C)C)N(C)C(=O)[C@H](Cc2ccccc2)N(C)C(=O)[C@H](COC(C)(C)C)NC(=O)[C@H](CC(C)C)N(C)C(=O)[C@H](C)N(C)C(=O)[C@H](CC(C)C)N(C)C(=O)[C@H]([C@@H](C)O)NC(=O)[C@H](Cc2ccccc2)N(C)C1=O [pd054] (cyclo(I[NMeF]T[NMeL][NMeA][NMeL]S(tBu)[NMeF][NMeV][d(β3hA)][dNMeA]L[NMeV]P))
